Data published in patent publication US20260062422A1 (Halda Therapeutics OpCo, Inc., priority 2022, published 2026).

Key:
T47D cells = assay: Cellular growth inhibition assay for T47D cells, CellTiter-Glo; type: cell-based, human; settings: Homo sapiens, T47D, 72 h, 72 hours treatment, CellTiter-Glo 2.0 cell viability
How it was run: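 Cells are plated at 3000/well and allowed 24 h before treatment. Test compound in medium containing 0.5% DMSO is then added, with DMSO-only wells as negative control, and plates are incubated 72 h at 37 °C. ATP luminescence (CellTiter-Glo 2.0) is then fitted to four parameters to derive GI50.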

[1] = system: T-Rex 293 cell line SC3 cells having increased expression of androgen receptor protein due to exposure to doxycycline; assay: Cellular growth inhibition, T-Rex 293 SC3 cells with doxycycline (androgen receptor induced), CellTiter-Glo; type: cell-based; settings: 72 h, T-Rex 293 SC3 cells with 10 ng/mL doxycycline (increased androgen receptor expression)
How it was run: (§1)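 GI50 came from a four-parameter fit of CellTiter-Glo 2.0 luminescence after 72 h compound exposure (0.5% DMSO, 37 °C), dosing 24 h post-seeding. SC3 clone cells (2500/well), transfected with wild-type androgen receptor, grew in charcoal-stripped serum medium lacking phenol red, induced with 10 ng/mL doxycycline or left uninduced.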

[2] = system: T-Rex 293 cell line SC3 cells lacking increased expression of androgen receptor protein; assay: Cellular growth inhibition, T-Rex 293 SC3 cells without doxycycline, CellTiter-Glo; type: cell-based; settings: 72 h, T-Rex 293 SC3 cells not exposed to doxycycline, CellTiter-Glo 2.0
How it was run: as §1

SMILES | GI50 (T47D cells) | GI50 [1] | GI50 [2]
COCC[C@@H]1N=C(c2ccc(CCCOC3CCN(c4ncc(C(=O)N[C@H]5C(C)(C)[C@H](Oc6ccc(C#N)c(Cl)c6)C5(C)C)cn4)CC3)cc2)c2c(sc(C)c2C)-n2c(C)nnc21 [Compound I-227, N-[3-(3-chloro-4-cyano-phenoxy)-2,2,4,4-tetramethyl-cyclobutyl]-2-[4-[3-[4-[(9S)-9-(2-methoxyethyl)-4,5,13-trimethyl-3-thia-1,8,11,12-tetrazatricyclo[8.3.0.02,6]trideca-2(6),4,7,10,12-pentaen-7-yl]phenyl]propoxy]-1-piperidyl]pyrimidine-5-carboxamide] | 500 to 1500 nM | < 500 nM | 500 to 1500 nM
Cc1sc2c(c1C)C(c1ccc(C#CC3CC4(CCN(c5ncc(C(=O)N[C@H]6C(C)(C)[C@H](Oc7ccc(C#N)c(Cl)c7)C6(C)C)cn5)CC4)C3)cc1)=N[C@@H](Cc1ncco1)c1nnc(C)n1-2 [Compound I-267] | < 500 nM | < 500 nM | < 500 nM
Cc1sc2c(c1C)C(c1ccc(N3CC(CC4CCN(c5ncc(C(=O)N[C@H]6C(C)(C)[C@H](Oc7ccc(C#N)c(Cl)c7)C6(C)C)cn5)CC4)C3)cc1)=N[C@@H](C)c1nnc(C)n1-2 [Compound I-270] | < 500 nM | < 500 nM | > 3000 nM
Cc1sc2c(c1C)C(c1ccc(N3CC(C4CCN(c5ncc(C(=O)N[C@H]6C(C)(C)[C@H](Oc7ccc(C#N)c(Cl)c7)C6(C)C)cn5)CC4)C3)cc1)=N[C@@H](C)c1nnc(C)n1-2 [Compound I-271] | 500 to 1500 nM | < 500 nM | > 3000 nM
Cc1sc2c(c1C)C(c1ccc(OC3CC4(C3)CC3(CCN(c5ncc(C(=O)N[C@H]6C(C)(C)[C@H](Oc7ccc(C#N)c(Cl)c7)C6(C)C)cn5)CC3)C4)cc1)=N[C@@H](Cc1ncco1)c1nnc(C)n1-2 [Compound I-283] | < 500 nM | < 500 nM | > 3000 nM
Cc1sc2c(c1C)C(c1ccc(CC3CC4(CCN(c5ncc(C(=O)N[C@H]6C(C)(C)[C@H](Oc7ccc(C#N)c(Cl)c7)C6(C)C)cn5)CC4)C3)cc1)=N[C@@H](C)c1nnc(C)n1-2 [Compound I-436] | < 500 nM | < 500 nM | 1500 to 3000 nM

Second part, led by results:

GI50 (T47D cells) | SMILES | GI50 [1] | GI50 [2]
< 500 nM | Cc1sc2c(c1C)C(c1ccc(CCCOC3CCN(c4ncc(C(=O)N[C@H]5C(C)(C)[C@H](Oc6ccc(C#N)c(Cl)c6)C5(C)C)cn4)CC3)cc1)=N[C@@H](C)c1nnc(C)n1-2 [Compound I-228, N-[3-(3-chloro-4-cyano-phenoxy)-2,2,4,4-tetramethyl-cyclobutyl]-2-[4-[3-[4-[(9S)-4,5,9,13-tetramethyl-3-thia-1,8,11,12-tetrazatricyclo [8.3.0.02,6]trideca-2(6),4,7,10,12-pentaen-7-yl]phenyl]propoxy]-1-piperidyl]pyrimidine-5-carboxamide] | < 500 nM | 500 to 1500 nM
< 500 nM | Cc1sc2c(c1C)C(c1ccc(OCCOC3CCN(c4ncc(C(=O)N[C@H]5C(C)(C)[C@H](Oc6ccc(C#N)c(Cl)c6)C5(C)C)cn4)CC3)cc1)=N[C@@H](CC(=O)OC(C)(C)C)c1nnc(C)n1-2 [Compound I-235, tert-butyl 2-((S)-4-(4-(2-((1-(5-(((1r,3r)-3-(3-chloro-4-cyanophenoxy)-2,2,4,4-tetramethylcyclobutyl)carbamoyl)pyrimidin-2-yl)piperidin-4-yl)oxy)ethoxy)phenyl)-2,3,9-trimethyl-6H-thieno[3,2-f][1,2,4]triazolo[4,3-a][1,4]diazepin-6-yl)acetate] | < 500 nM | > 3000 nM
< 500 nM | Cc1sc2c(c1C)C(c1ccc(C3CC3C3CC4(CCN(c5ncc(C(=O)N[C@H]6C(C)(C)[C@H](Oc7ccc(C#N)c(Cl)c7)C6(C)C)cn5)CC4)C3)cc1)=N[C@@H](Cc1ncco1)c1nnc(C)n1-2 (stereo partly drawn) [Compound I-237] | < 500 nM | > 3000 nM
< 500 nM | Cc1sc2c(c1C)C(c1ccc(CCC3CC4(CCCN(c5ncc(C(=O)N[C@H]6C(C)(C)[C@H](Oc7ccc(C#N)c(Cl)c7)C6(C)C)cn5)C4)C3)cc1)=N[C@@H](Cc1ncco1)c1nnc(C)n1-2 [Compound I-241] | < 500 nM | < 500 nM
